Here are results for eight compounds from patent US10766928B2, “Targeted conformationally-constrained kinked endosomal disrupting peptides” (priority 2012, dated 2020).

One data set concerns Jurkat lymphocytes. On the procedure:
(§1) The effects of the compounds of the invention on human Juikat leukemia cells were evaluated using flow cytometry-based assays of potency, efficacy, and toxicity. […] Analysis of flow cytometry data by non-linear regression was used to determine IC50 values for potency with the efficacy expressed as a percentage. […] Dose-dependent effects on cellular viability after 48 h at 37° C. in culture were also measured by flow cytometry.
(§2) The # represents the compound number in accordance with Tables A, B, and C. Concentrations of compound stock solutions were determined by absorbance measurements at 280 nm. Efficacy was determined as % change in cellular fluorescence relative to the maximal response of Compound 1, defined as 100%. Potencies and efficacies in Jurkat lymphocytes were measured by flow cytometry after treatment of cells with the compounds listed and the fluorescent probe Compound 2 (2.5 μM) for 14 hours. Toxicity to this cell line was determined by flow cytometry analysis of light scattering and counterstaining with PI after treatment for 48 h at 37° C. in culture. […] N.D., not determined.

Data set [1] relates to endosomes of Jurkat lymphocytes. The data set can be described thus: Endosome disruption in Jurkat lymphocytes: release of carboxyfluorescein from disulfide probe Compound 2, flow cytometry. On the procedure: as §1, §2
Cells were treated with fluorescent molecular probe Compound 2 (2.5 μM) and endosome disruptors for 14 hours at 37° C. Enhanced cellular fluorescence resulting from release of the pH-sensitive fluorophore Compound 3 into the cytoplasm was quantified by flow cytometry.
Natural amino acids are represented by single letter codes. Codes for non-standard elements are as follows: Ch1: (3β-Cholest-5-en-3-yl-ammonio)pentanoyl; Ch2: (Cholester-3-yl)oxy-βAla-βAla; X: ε-Ahx; U: Aib; PB: Pacific Blue fluorophore. O: 3-(2-(2-(2-aminoethoxy)ethoxy)ethoxy)propanyl.

Data set [2] in a line: Thermodynamic solubility in PBS (pH 7.4). The data set is classed as physicochemical. As to conditions: phosphate buffered saline. The source says:
Values in parentheses represent 95% confidence intervals. N.D., not determined.
Measurements represent duplicate or more replicates, with active peptides subjected to multiple replicates. ND: not determined. The peptide was non-toxic and soluble in cell culture medium at this concentration.

[3] abbreviates: pH 7.4, Table 1, PBS pH 7.4, 24 hours at 22° C., ±S.D., read-out: Solubility (aq.).

Values after ≈ are worked out from the molar mass of the structure shown. Read-outs that look alike come from different tables or passages of the source. Non-standard residues stand in square brackets, D forms with d. Residues, ends and D or L forms follow the SMILES beside them. *: point of attachment. Pentanoyl(5-NH-cholesteryl) = CC(C)CCC[C@@H](C)[C@H]1CC[C@H]2[C@@H]3CC=C4C[C@@H](NCCCCC(=O)*)CC[C@]4(C)[C@H]3CC[C@]12C; PEG3 = NCCOCCOCCOCCC(=O)O; Aib = CC(C)(N)C(=O)O; Ahx = NCCCCCC(=O)O; βAla = NCCC(=O)O Some results are limits rather than exact numbers.

Regarding `CC(C)CCC[C@@H](C)[C@H]1CC[C@H]2[C@@H]3CC=C4C[C@@H](NCCCCC(=O)NCCC(=O)N[C@@H](CCC(=O)O)C(=O)N[C@@H](CCC(=O)O)C(=O)NCCOCCOCCOCCC(=O)NCCOCCOCCOCCC(=O)NC(C)(C)C(=O)NC(C)(C)C(=O)NC(C)(C)C(=O)NC(C)(C)C(=O)N[C@@H](Cc5ccc(O)cc5)C(=O)N[C@@H](Cc5ccc(O)cc5)C(=O)N[C@@H](C)C(=O)N[C@@H](Cc5ccc(O)cc5)C(=O)N[C@@H](Cc5ccc(O)cc5)C(=O)N5CCC[C@H]5C(=O)N5CCC[C@H]5C(=O)N[C@H](C(=O)N[C@H](C(N)=O)C(C)C)C(C)C)CC[C@]4(C)[C@H]3CC[C@]12C` [Compound 28, R = BEEOOUUUUYYAYYPPVV-CONH2] ({Pentanoyl(5-NH-cholesteryl)-βAla}-EE[PEG3][PEG3][Aib][Aib][Aib][Aib]YYAYYPPVV-NH2), the IC50 in the data set with Jurkat lymphocytes (48 h) worked out at 3 µM. The compound also came in with an EC50 in data set [1] (14 h) of 0.06 µM. Also, the solubility thermodynamic at 24 h in data set [2] (setting [3]) came out at 63 ± 28 µM (≈ 169 µg/mL).
As to `CC(C)[C@H](NC(=O)[C@@H](NC(=O)[C@@H]1CCCN1C(=O)[C@@H]1CCCN1C(=O)[C@H](Cc1c[nH]c2ccccc12)NC(=O)[C@H](Cc1ccc(O)cc1)NC(=O)[C@H](C)NC(=O)[C@H](Cc1c[nH]c2ccccc12)NC(=O)[C@H](Cc1c[nH]c2ccccc12)NC(=O)C(C)(C)NC(=O)C(C)(C)NC(=O)C(C)(C)NC(=O)C(C)(C)N)C(C)C)C(N)=O` [Compound 44] (H-[Aib][Aib][Aib][Aib]WWAYWPPVV-NH2), the IC50 in the data set with Jurkat lymphocytes (read-out: Toxicity, Table 3, IC50, Jurkat, 48 h at 37° C., footnote a: non-toxic and soluble in cell culture medium at this concentration) was above 16 µM. Further, in data set [1] (Table 1, % change in cellular fluorescence relative to maximal response of Compound 1 (100%), Jurkat, 14 hours), the “Efficacy (% of max. 1)” value was found to be 97%. In data set [1] (Table 2, % of the effect of compound 1, calculated span of dose-response curve, ± standard deviation, Jurkat, 14 h), the “Efficacy (% of 1)” value is given as 98 ± 2%. The EC50 in data set [1] (read-out: Potency (EC50), Table 1, Jurkat lymphocytes, probe Compound 2 (2.5 μM), 14 hours, 95% confidence interval in neighbouring cell) came to 5.2 µM; in data set [1] (read-out: Potency, Table 2, EC50 ± standard deviation, Jurkat lymphocytes, disulfide-linked fluorescent probe (2.5 μM), 14 h) it was 5 ± 1 µM. The solubility thermodynamic at 24 h in data set [2] (setting [3]) came out at 22 ± 1 µM (≈ 33.9 µg/mL); in data set [2] (pH 7.4, Table 3, PBS pH 7.4, 24 h at 22° C., read-out: Solubility), 22 ± 1 µM (≈ 33.9 µg/mL).
Compound `CC(C)CCC[C@@H](C)[C@H]1CC[C@H]2[C@@H]3CC=C4C[C@@H](NCCCCC(=O)NCCC(=O)N[C@@H](CCC(=O)O)C(=O)N[C@@H](CCC(=O)O)C(=O)NCCOCCOCCOCCC(=O)NCCOCCOCCOCCC(=O)NC(C)(C)C(=O)NC(C)(C)C(=O)NC(C)(C)C(=O)NC(C)(C)C(=O)N[C@@H](Cc5c[nH]c6ccccc56)C(=O)N[C@@H](Cc5c[nH]c6ccccc56)C(=O)N[C@@H](C)C(=O)N[C@@H](Cc5ccc(O)cc5)C(=O)N[C@@H](Cc5c[nH]c6ccccc56)C(=O)N5CCC[C@H]5C(=O)N5CCC[C@H]5C(=O)N[C@H](C(=O)N[C@@H](C)C(=O)N[C@@H](C)C(N)=O)C(C)C)CC[C@]4(C)[C@H]3CC[C@]12C` [Compound 27, R = BEEOOUUUUWWAYWPPVAA-CONH2] ({Pentanoyl(5-NH-cholesteryl)-βAla}-EE[PEG3][PEG3][Aib][Aib][Aib][Aib]WWAYWPPVAA-NH2) gave an IC50 in the data set with Jurkat lymphocytes (48 h) of 3 µM. This compound also showed an EC50 in data set [1] (14 h) of 0.2 µM.
With `CC(C)CCC[C@@H](C)[C@H]1CC[C@H]2[C@@H]3CC=C4C[C@@H](NCCCCC(=O)NCCC(=O)N[C@@H](CCC(=O)O)C(=O)N[C@@H](CCC(=O)O)C(=O)NCCCCCC(=O)N[C@@H](C)C(=O)N[C@@H](C)C(=O)N[C@@H](C)C(=O)N[C@@H](Cc5c[nH]c6ccccc56)C(=O)N[C@@H](Cc5c[nH]c6ccccc56)C(=O)N[C@@H](C)C(=O)N[C@@H](Cc5ccc(O)cc5)C(=O)N[C@@H](Cc5c[nH]c6ccccc56)C(=O)N5CCC[C@H]5C(=O)N5CCC[C@H]5C(=O)N[C@H](C(=O)N[C@@H](C)C(N)=O)C(C)C)CC[C@]4(C)[C@H]3CC[C@]12C` [Compound 7, R = BEEXAAAWWAYWPPVA-CONH2] ({Pentanoyl(5-NH-cholesteryl)-βAla}-EE[Ahx]AAAWWAYWPPVA-NH2), the IC50 in the data set with Jurkat lymphocytes (48 h) was 16 µM. Also, the EC50 in data set [1] (14 h) was 1 µM.
The like results for `CC(C)CCC[C@@H](C)[C@H]1CC[C@H]2[C@@H]3CC=C4C[C@@H](NCCCCC(=O)NCCC(=O)N[C@@H](CCC(=O)O)C(=O)N[C@@H](CCC(=O)O)C(=O)NCCCCCC(=O)NC(C)(C)C(=O)NC(C)(C)C(=O)NC(C)(C)C(=O)N[C@@H](Cc5c[nH]c6ccccc56)C(=O)N[C@@H](Cc5c[nH]c6ccccc56)C(=O)N[C@@H](C)C(=O)N[C@@H](Cc5ccc(O)cc5)C(=O)N[C@@H](Cc5c[nH]c6ccccc56)C(=O)N5CCC[C@H]5C(=O)N5CCC[C@H]5C(=O)N[C@H](C(N)=O)C(C)C)CC[C@]4(C)[C@H]3CC[C@]12C` [Compound 11, R = BEEXUUUWWAYWPPV-CONH2] ({Pentanoyl(5-NH-cholesteryl)-βAla}-EE[Ahx][Aib][Aib][Aib]WWAYWPPV-NH2) were, in that order, 15 µM and 0.8 µM.
The like results for `CC(C)CCC[C@@H](C)[C@H]1CC[C@H]2[C@@H]3CC=C4C[C@@H](NCCCCC(=O)NCCC(=O)N[C@@H](CCC(=O)O)C(=O)N[C@@H](CCC(=O)O)C(=O)NCCCCCC(=O)NC(C)(C)C(=O)NC(C)(C)C(=O)NC(C)(C)C(=O)N[C@@H](C)C(=O)N[C@@H](Cc5c[nH]c6ccccc56)C(=O)N[C@@H](C)C(=O)N[C@@H](Cc5ccc(O)cc5)C(=O)N[C@@H](Cc5c[nH]c6ccccc56)C(=O)N5CCC[C@H]5C(=O)N5CCC[C@H]5C(=O)N[C@H](C(=O)N[C@@H](C)C(N)=O)C(C)C)CC[C@]4(C)[C@H]3CC[C@]12C` [Compound 12, R = BEEXUUUAWAYWPPVA-CONH2] ({Pentanoyl(5-NH-cholesteryl)-βAla}-EE[Ahx][Aib][Aib][Aib]AWAYWPPVA-NH2) were, in that order, 14 µM and 0.4 µM.
The corresponding values for `CC(C)CCC[C@@H](C)[C@H]1CC[C@H]2[C@@H]3CC=C4C[C@@H](NCCCCC(=O)NCCC(=O)N[C@@H](CCC(=O)O)C(=O)N[C@@H](CCC(=O)O)C(=O)NCCCCCC(=O)NC(C)(C)C(=O)NC(C)(C)C(=O)NC(C)(C)C(=O)N[C@@H](Cc5c[nH]c6ccccc56)C(=O)N[C@@H](C)C(=O)N[C@@H](C)C(=O)N[C@@H](Cc5ccc(O)cc5)C(=O)N[C@@H](Cc5c[nH]c6ccccc56)C(=O)N5CCC[C@H]5C(=O)N5CCC[C@H]5C(=O)N[C@H](C(=O)N[C@@H](C)C(N)=O)C(C)C)CC[C@]4(C)[C@H]3CC[C@]12C` [Compound 13, R = BEEXUUUWAAYWPPVA-CONH2] ({Pentanoyl(5-NH-cholesteryl)-βAla}-EE[Ahx][Aib][Aib][Aib]WAAYWPPVA-NH2) are 16 µM and 0.7 µM.
With `CC(C)CCC[C@@H](C)[C@H]1CC[C@H]2[C@@H]3CC=C4C[C@@H](NCCCCC(=O)NCCC(=O)N[C@@H](CCC(=O)O)C(=O)N[C@@H](CCC(=O)O)C(=O)NCCCCCC(=O)NCCCCCC(=O)N[C@@H](C)C(=O)N[C@@H](C)C(=O)N[C@@H](C)C(=O)N[C@@H](Cc5c[nH]c6ccccc56)C(=O)N[C@@H](Cc5c[nH]c6ccccc56)C(=O)N[C@@H](C)C(=O)N[C@@H](Cc5ccc(O)cc5)C(=O)N[C@@H](Cc5c[nH]c6ccccc56)C(=O)N5CCC[C@H]5C(=O)N5CCC[C@H]5C(=O)N[C@H](C(=O)N[C@@H](C)C(N)=O)C(C)C)CC[C@]4(C)[C@H]3CC[C@]12C` [Compound 8, R = BEEXXAAAWWAYWPPVA-CONH2] ({Pentanoyl(5-NH-cholesteryl)-βAla}-EE[Ahx][Ahx]AAAWWAYWPPVA-NH2), the IC50 with Jurkat lymphocytes (48 h) came to 9 µM. For the same compound, in data set [1] (14 h), the EC50 was determined as 0.4 µM.
